In PMC7956174, “Probing the Role of the Conserved Arg174 in Formate Dehydrogenase by Chemical Modification and Site-Directed Mutagenesis” (Molecules, 2021):
Where two headings read alike, the source gives them in different places.

Experiments:
[1] = molecular target: T1, CbFDH (Candida boidinii formate dehydrogenase) ([Candida] boidinii, UniProt O13437); assay: steady-state inhibition kinetics; type: biochemical
T1 construct: gene FDH1; no tag told
T1 sequence (O13437 1-364): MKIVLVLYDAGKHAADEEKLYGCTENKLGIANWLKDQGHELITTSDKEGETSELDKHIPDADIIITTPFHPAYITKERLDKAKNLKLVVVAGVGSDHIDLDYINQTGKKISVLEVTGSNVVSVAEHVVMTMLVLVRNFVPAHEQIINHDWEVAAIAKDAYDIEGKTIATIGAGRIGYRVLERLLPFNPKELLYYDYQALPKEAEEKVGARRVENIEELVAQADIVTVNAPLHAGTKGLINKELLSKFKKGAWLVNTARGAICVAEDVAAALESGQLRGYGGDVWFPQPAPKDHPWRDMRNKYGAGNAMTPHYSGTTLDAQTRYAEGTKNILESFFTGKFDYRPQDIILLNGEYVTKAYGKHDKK
Text: steady-state inhibition kinetics on CbFDH (Candida boidinii formate dehydrogenase)

[2] = substrate: O=CO; assay: steady-state kinetics; type: biochemical, [Candida] boidinii; conditions: 0.1 M potassium phosphate pH 7.5, 25 °C, co-substrate NAD+
Text: steady-state kinetics on CbFDH (Candida boidinii formate dehydrogenase)

`NC(=O)C1=CN([C@@H]2O[C@H](COP(=O)(O)OP(=O)(O)OC[C@H]3O[C@@H](n4cnc5c(N)ncnc54)[C@H](O)[C@@H]3O)[C@@H](O)[C@H]2O)C=CC1` [NADH] was tested, and the Ki ([1]; read-out: Ki (mM) (NADH)) was 0.03 ± 0.005 mM.

For `Nc1ncnc2c1ncn2[C@@H]1O[C@H](COP(=O)(O)O)[C@@H](O)[C@H]1O` [AMP], the Ki ([1]; read-out: Ki (mM) (AMP)) was 1.6 ± 0.1 mM.

B1: CbFDH (Candida boidinii formate dehydrogenase) ([Candida] boidinii) (protein)
chain: T1 sequence (O13437 1-364)
notes: no tag told
In the case of B1, the Km [2] is reported as 2400 ± 100 µM.
